PubChem BioAssay (NCI)
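96-well plates; 48 h exposure; 5 concentrations. Endpoints by linear interpolation between flanking doses. Not reached: highest tested concentration assigned. TGI: total growth inhibition.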

What was measured:
Experiment in all cases: NCI-60 cell line screen, 48 h
[1] = tested on: UACC-62 melanoma
[2] = tested on: SNB-19 CNS
[3] = tested on: NCI-H522 lung
[4] = tested on: RPMI-8226 leukemia
[5] = tested on: KM20L2 colon
[6] = tested on: U251 CNS
[7] = tested on: COLO 205 colon
[8] = tested on: SNB-75 CNS
[9] = tested on: HCT-116 colon
[10] = tested on: OVCAR-3 ovarian
[11] = tested on: DMS 273 small cell lung
[12] = tested on: UO-31 renal
[13] = tested on: DMS 114 small cell lung
[14] = tested on: OVCAR-4 ovarian
[15] = tested on: SF-268 CNS
[16] = tested on: LXFL 529 NSCLC
[17] = tested on: M19-MEL melanoma
[18] = tested on: SW-620 colon
[19] = tested on: 786-0 renal
[20] = tested on: ACHN renal
[21] = tested on: XF 498 CNS
[22] = tested on: MALME-3M melanoma
[23] = tested on: HOP-62 NSCLC
[24] = tested on: EKVX NSCLC
[25] = tested on: SK-MEL-28 melanoma
[26] = tested on: SF-539 CNS
[27] = tested on: LOX IMVI melanoma
[28] = tested on: SNB-78 CNS
[29] = tested on: TK-10 renal
[30] = tested on: SN12C renal
[31] = tested on: IGROV1 ovarian
[32] = tested on: HT29 colon
[33] = tested on: NCI-H226 lung
[34] = tested on: CCRF-CEM leukemia
[35] = tested on: SR leukemia
[36] = tested on: OVCAR-5 ovarian
[37] = tested on: SF-295 CNS
[38] = tested on: A549 NSCLC
[39] = tested on: HCT-15 colon
[40] = tested on: M14 melanoma
[41] = tested on: NCI-H460 lung
[42] = tested on: OVCAR-8 ovarian
[43] = tested on: SK-MEL-5 melanoma
[44] = tested on: NCI-H23 lung
[45] = tested on: RXF 393 renal
[46] = tested on: SK-MEL-2 melanoma
[47] = tested on: MOLT-4 leukemia
[48] = tested on: UACC-257 melanoma
[49] = tested on: HOP-18 NSCLC
[50] = tested on: CAKI-1 renal
[51] = tested on: DLD-1 colon
[52] = tested on: HCC-2998 colon
[53] = tested on: K-562 leukemia
[54] = tested on: HL-60(TB) leukemia
[55] = tested on: HOP-92 NSCLC
[56] = tested on: SK-OV-3 ovarian
[57] = tested on: A498 renal
[58] = tested on: KM12 colon

Measured: TGI

CC(C)(C)S(=O)OC12CC3CC(CC(C3)C1)C2 (centres undefined)
not listed: [48] | [49] | [50] | [51] | [52] | [53] | [54] | [55] | [56] | [57] | [58]
> 100 µM: all other assays above

CC(C)c1cc(OCC(O)CO)cc(C(C)C)c1 (centres undefined)
not listed: [4]
> 100 µM: all other assays above
